Assay results: patent publication EP4745137A1 (Gluetacs Therapeutics (Shanghai) Co., Ltd., priority 2023, dated 2025)

Tests used:
Assay type in all cases: cell-based
Conditions in all cases: 24 hours of compound treatment, 50 nM and 500 nM tested (concentration behind the class not stated)
WEE1 = biological target: T1, WEE1 (Homo sapiens, UniProt P30291+Q96SW2); assay: Western-blot assay of substrate protein degradation in hPBMCs, WEE1
T1 construct: endogenous in cells; host or cells: hPBMCs (Milecell Biotechnologies)

IKZF2 = biological target: T2, IKZF2 (Homo sapiens, UniProt Q96SW2+Q9UKS7); assay: Western-blot assay of substrate protein degradation in hPBMCs, IKZF2
T2 construct: endogenous in cells; host or cells: hPBMCs (Milecell Biotechnologies)

GSPT1 = biological target: T3, GSPT1 (Homo sapiens, UniProt P15170+Q96SW2); assay: Western-blot assay of substrate protein degradation in hPBMCs, GSPT1
T3 construct: endogenous in cells; host or cells: hPBMCs (Milecell Biotechnologies)

CK1α = biological target: T4, CK1α (Homo sapiens, UniProt P48729+Q96SW2); assay: Western-blot assay of substrate protein degradation in hPBMCs, CK1α
T4 construct: endogenous in cells; host or cells: hPBMCs (Milecell Biotechnologies)

IKZF3 = biological target: T5, IKZF3 (Homo sapiens, UniProt Q96SW2+Q9UKT9); assay: Western-blot assay of substrate protein degradation in hPBMCs, IKZF3
T5 construct: endogenous in cells; host or cells: hPBMCs (Milecell Biotechnologies)

IKZF1 = biological target: T6, IKZF1 (Homo sapiens, UniProt Q13422+Q96SW2); assay: Western-blot assay of substrate protein degradation in hPBMCs, IKZF1
T6 construct: endogenous in cells; host or cells: hPBMCs (Milecell Biotechnologies)

T4 sequence (P48729 whole entry): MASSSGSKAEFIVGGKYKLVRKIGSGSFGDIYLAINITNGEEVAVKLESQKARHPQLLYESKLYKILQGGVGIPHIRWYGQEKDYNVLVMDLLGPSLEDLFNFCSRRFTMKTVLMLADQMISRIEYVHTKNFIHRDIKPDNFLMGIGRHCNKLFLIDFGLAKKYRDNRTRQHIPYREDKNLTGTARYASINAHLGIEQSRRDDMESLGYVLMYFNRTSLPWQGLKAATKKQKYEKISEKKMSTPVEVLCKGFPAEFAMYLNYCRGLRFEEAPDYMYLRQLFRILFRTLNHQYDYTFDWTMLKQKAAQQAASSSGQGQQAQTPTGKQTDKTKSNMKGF
T4 sequence (Q96SW2 whole entry): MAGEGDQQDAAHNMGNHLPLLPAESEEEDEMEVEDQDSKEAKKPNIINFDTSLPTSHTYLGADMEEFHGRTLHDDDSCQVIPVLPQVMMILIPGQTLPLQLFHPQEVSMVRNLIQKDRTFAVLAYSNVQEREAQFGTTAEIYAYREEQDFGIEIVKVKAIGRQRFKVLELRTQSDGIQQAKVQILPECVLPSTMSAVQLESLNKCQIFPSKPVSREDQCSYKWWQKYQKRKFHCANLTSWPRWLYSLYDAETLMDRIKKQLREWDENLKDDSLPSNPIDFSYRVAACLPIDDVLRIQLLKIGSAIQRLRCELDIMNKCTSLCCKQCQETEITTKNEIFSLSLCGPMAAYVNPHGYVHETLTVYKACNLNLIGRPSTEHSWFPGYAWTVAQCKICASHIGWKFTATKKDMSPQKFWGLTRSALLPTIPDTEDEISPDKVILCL
T4 sequence (Q16531 whole entry partner): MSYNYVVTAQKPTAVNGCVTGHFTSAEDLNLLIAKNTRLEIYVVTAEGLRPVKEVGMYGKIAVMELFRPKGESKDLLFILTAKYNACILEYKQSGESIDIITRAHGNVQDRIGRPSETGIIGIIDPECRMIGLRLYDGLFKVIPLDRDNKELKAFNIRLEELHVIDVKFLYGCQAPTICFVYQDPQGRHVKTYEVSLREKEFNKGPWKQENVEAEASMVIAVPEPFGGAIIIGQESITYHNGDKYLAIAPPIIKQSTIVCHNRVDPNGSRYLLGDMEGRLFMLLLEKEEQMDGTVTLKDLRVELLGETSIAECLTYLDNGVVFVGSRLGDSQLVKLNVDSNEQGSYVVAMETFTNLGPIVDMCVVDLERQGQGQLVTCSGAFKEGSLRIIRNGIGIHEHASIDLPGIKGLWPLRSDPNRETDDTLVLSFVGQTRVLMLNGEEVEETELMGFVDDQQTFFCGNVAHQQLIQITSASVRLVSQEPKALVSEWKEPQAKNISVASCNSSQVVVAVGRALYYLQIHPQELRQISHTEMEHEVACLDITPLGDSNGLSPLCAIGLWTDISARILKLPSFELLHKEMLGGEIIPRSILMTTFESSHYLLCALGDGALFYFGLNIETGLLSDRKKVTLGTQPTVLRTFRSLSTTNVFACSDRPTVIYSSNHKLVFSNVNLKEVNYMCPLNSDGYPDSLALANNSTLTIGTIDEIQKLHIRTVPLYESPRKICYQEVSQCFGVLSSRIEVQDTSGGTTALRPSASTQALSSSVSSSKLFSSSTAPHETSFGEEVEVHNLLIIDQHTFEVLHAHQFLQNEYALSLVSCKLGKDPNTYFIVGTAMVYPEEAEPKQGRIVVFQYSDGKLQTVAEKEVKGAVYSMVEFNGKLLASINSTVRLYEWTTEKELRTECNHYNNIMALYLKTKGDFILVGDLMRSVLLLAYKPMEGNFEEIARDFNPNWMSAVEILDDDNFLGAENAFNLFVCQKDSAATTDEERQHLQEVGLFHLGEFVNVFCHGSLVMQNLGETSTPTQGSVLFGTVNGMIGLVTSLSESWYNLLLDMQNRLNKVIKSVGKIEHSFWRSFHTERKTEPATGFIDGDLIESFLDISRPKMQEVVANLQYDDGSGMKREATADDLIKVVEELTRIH
T5 sequence (Q9UKT9 whole entry): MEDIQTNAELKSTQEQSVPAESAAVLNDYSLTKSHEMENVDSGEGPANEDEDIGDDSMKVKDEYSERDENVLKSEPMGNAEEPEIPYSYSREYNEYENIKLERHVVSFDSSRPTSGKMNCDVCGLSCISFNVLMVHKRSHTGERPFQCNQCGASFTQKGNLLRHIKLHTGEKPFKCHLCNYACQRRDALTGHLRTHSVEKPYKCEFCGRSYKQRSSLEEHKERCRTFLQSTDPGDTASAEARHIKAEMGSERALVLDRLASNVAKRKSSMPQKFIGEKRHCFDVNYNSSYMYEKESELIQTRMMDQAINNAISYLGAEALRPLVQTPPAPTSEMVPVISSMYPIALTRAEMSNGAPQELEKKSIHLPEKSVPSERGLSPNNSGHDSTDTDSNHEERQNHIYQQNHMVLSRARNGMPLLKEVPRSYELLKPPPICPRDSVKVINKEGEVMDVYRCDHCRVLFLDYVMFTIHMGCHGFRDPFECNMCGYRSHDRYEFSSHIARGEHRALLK
T5 sequence (Q96SW2 whole entry): as the sequence (Q96SW2 whole entry) above
T5 sequence (Q16531 whole entry partner): as the sequence (Q16531 whole entry partner) above
T3 sequence (P15170 whole entry): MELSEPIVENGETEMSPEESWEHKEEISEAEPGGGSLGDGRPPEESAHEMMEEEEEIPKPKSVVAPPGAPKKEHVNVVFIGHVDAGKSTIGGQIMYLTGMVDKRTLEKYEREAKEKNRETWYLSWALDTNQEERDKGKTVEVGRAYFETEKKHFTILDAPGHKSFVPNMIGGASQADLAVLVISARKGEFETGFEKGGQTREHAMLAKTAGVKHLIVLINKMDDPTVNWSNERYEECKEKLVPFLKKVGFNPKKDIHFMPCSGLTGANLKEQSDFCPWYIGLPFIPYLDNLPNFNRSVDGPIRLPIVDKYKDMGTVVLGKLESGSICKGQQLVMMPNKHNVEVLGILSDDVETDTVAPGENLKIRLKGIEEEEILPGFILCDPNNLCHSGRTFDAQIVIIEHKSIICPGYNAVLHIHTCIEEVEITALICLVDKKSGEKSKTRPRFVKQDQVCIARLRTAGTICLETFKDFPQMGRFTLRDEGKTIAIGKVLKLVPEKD
T3 sequence (Q96SW2 whole entry): as the sequence (Q96SW2 whole entry) above
T3 sequence (Q16531 whole entry partner): as the sequence (Q16531 whole entry partner) above
T2 sequence (Q9UKS7 whole entry): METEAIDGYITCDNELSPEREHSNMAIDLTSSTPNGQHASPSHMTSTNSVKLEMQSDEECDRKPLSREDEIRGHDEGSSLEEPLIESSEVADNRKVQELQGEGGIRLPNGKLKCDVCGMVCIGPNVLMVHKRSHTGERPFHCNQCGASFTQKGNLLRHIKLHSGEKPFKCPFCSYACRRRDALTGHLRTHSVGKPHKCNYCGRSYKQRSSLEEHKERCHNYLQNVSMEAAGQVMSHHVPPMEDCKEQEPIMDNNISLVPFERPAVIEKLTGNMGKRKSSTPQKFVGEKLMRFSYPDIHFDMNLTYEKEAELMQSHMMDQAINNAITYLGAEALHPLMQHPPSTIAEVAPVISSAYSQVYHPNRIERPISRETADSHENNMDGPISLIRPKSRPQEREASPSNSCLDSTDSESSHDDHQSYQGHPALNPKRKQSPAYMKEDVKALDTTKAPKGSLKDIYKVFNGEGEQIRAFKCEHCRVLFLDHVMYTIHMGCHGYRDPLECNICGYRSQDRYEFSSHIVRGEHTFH
T2 sequence (Q96SW2 whole entry): as the sequence (Q96SW2 whole entry) above
T2 sequence (Q16531 whole entry partner): as the sequence (Q16531 whole entry partner) above
T1 sequence (P30291 whole entry): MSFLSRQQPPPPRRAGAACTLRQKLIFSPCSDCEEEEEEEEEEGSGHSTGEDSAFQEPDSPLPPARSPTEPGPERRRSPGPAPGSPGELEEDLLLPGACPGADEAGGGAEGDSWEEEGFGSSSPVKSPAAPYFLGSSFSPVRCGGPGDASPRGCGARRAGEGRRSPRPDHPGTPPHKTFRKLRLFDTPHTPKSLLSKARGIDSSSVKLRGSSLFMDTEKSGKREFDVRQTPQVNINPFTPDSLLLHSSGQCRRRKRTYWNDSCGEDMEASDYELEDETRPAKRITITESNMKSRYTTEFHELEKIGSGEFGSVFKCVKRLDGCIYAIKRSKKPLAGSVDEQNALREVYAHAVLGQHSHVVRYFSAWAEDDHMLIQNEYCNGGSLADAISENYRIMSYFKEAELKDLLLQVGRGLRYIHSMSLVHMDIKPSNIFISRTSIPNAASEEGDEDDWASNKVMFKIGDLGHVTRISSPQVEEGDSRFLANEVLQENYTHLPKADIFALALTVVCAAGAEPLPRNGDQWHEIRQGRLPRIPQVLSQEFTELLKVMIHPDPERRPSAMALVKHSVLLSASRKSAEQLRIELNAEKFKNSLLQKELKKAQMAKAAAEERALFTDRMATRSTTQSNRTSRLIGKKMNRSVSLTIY
T1 sequence (Q96SW2 whole entry): as the sequence (Q96SW2 whole entry) above
T1 sequence (Q16531 whole entry partner): as the sequence (Q16531 whole entry partner) above

Row | SMILES | Weel substrate protein remaining % (WEE1) | IKZF2 substrate protein remaining % (IKZF2) | GSPT1 substrate protein remaining % (GSPT1) | CK1a substrate protein remaining % (CK1α) | IKZF3 substrate protein remaining % (IKZF3) | IKZF 1 substrate protein remaining % (IKZF1)
1 | Cc1ccccc1N1CCN(Cc2ccc3c(c2)C(=O)N(C2CCC(=O)NC2=O)C3=O)CC1 (stereo not drawn) [GT-06296, 2-(2,6-dioxopiperidin-3-yl)-5-((4-(o-tolyl)piperazin-1-yl)methyl)isoindoline-1,3-dione] | B (80%< substrate protein remaining %≤ 100%) | B (80%< substrate protein remaining %≤ 100%) | A (0% ≤ substrate protein remaining % ≤ 80%) | B (80%< substrate protein remaining %≤ 100%) | B (80%< substrate protein remaining %≤ 100%) | B (80%< substrate protein remaining %≤ 100%)
2 | O=C1CCC(N2C(=O)c3ccc(CN4CCN(c5c(Cl)cccc5Cl)CC4)cc3C2=O)C(=O)N1 (stereo not drawn) [GT-06297, 5-((4-(2,6-dichlorophenyl)piperazin-1-yl)methyl)-2-(2,6-dioxopiperidin-3-yl)isoindoline-1,3-dione] | B (80%< substrate protein remaining %≤ 100%) | B (80%< substrate protein remaining %≤ 100%) | A (0% ≤ substrate protein remaining % ≤ 80%) | B (80%< substrate protein remaining %≤ 100%) | B (80%< substrate protein remaining %≤ 100%) | B (80%< substrate protein remaining %≤ 100%)
3 | O=C1CCC(N2C(=O)c3ccc(CN4CCN(c5ccc(Cl)c(Cl)c5)CC4)cc3C2=O)C(=O)N1 (stereo not drawn) [GT-06298, 5-((4-(3,4-dichlorophenyl)piperazin-1-yl)methyl)-2-(2,6-dioxopiperidin-3-yl)isoindoline-1,3-dione] | B (80%< substrate protein remaining %≤ 100%) | B (80%< substrate protein remaining %≤ 100%) | A (0% ≤ substrate protein remaining % ≤ 80%) | B (80%< substrate protein remaining %≤ 100%) | B (80%< substrate protein remaining %≤ 100%) | B (80%< substrate protein remaining %≤ 100%)
4 | O=C1CCC(N2C(=O)c3ccc(CN4CCN(c5cc(Cl)cc(Cl)c5)CC4)cc3C2=O)C(=O)N1 (stereo not drawn) [GT-06299, 5-((4-(3,5-dichlorophenyl)piperazin-1-yl)methyl)-2-(2,6-dioxopiperidin-3-yl)isoindoline-1,3-dione] | B (80%< substrate protein remaining %≤ 100%) | B (80%< substrate protein remaining %≤ 100%) | A (0% ≤ substrate protein remaining % ≤ 80%) | B (80%< substrate protein remaining %≤ 100%) | B (80%< substrate protein remaining %≤ 100%) | B (80%< substrate protein remaining %≤ 100%)
5 | O=C1CCC(N2C(=O)c3ccc(CN4CCN(c5cccc(F)c5F)CC4)cc3C2=O)C(=O)N1 (stereo not drawn) [GT-06300, 5-((4-(2,3-difluorophenyl)piperazin-1-yl)methyl)-2-(2,6-dioxopiperidin-3-yl)isoindoline-1,3-dione] | B (80%< substrate protein remaining %≤ 100%) | B (80%< substrate protein remaining %≤ 100%) | A (0% ≤ substrate protein remaining % ≤ 80%) | B (80%< substrate protein remaining %≤ 100%) | B (80%< substrate protein remaining %≤ 100%) | B (80%< substrate protein remaining %≤ 100%)
6 | O=C1CCC(N2C(=O)c3ccc(CN4CCN(c5ncnc6sccc56)CC4)cc3C2=O)C(=O)N1 (stereo not drawn) [GT-06303, 2-(2,6-dioxopiperidin-3-yl)-5-((4-(thieno[2,3-d]pyrimidin-4-yl)piperazin-1-yl)methyl)isoindoline-1,3-dione] | B (80%< substrate protein remaining %≤ 100%) | B (80%< substrate protein remaining %≤ 100%) | B (80%< substrate protein remaining %≤ 100%) | B (80%< substrate protein remaining %≤ 100%) | B (80%< substrate protein remaining %≤ 100%) | A (0% ≤ substrate protein remaining % ≤ 80%)
7 | Cc1cc2c(N3CCN(Cc4ccc5c(c4)C(=O)N(C4CCC(=O)NC4=O)C5=O)CC3)ncnc2s1 (stereo not drawn) [GT-06305, 2-(2,6-dioxopiperidin-3-yl)-5-((4-(6-methylthieno[2,3-d]pyrimidin-4-yl)piperazin-1-yl)methyl)isoindoline-1,3-dione] | B (80%< substrate protein remaining %≤ 100%) | B (80%< substrate protein remaining %≤ 100%) | B (80%< substrate protein remaining %≤ 100%) | A (0% ≤ substrate protein remaining % ≤ 80%) | B (80%< substrate protein remaining %≤ 100%) | B (80%< substrate protein remaining %≤ 100%)
8 | Cc1sc2ncnc(N3CCN(Cc4ccc5c(c4)C(=O)N(C4CCC(=O)NC4=O)C5=O)CC3)c2c1C (stereo not drawn) [GT-06307, 5-((4-(5,6-dimethylthieno[2,3-d]pyrimidin-4-yl)piperazin-1-yl)methyl)-2-(2,6-dioxopiperidin-3-yl)isoindoline-1,3-dione] | B (80%< substrate protein remaining %≤ 100%) | A (0% ≤ substrate protein remaining % ≤ 80%) | A (0% ≤ substrate protein remaining % ≤ 80%) | A (0% ≤ substrate protein remaining % ≤ 80%) | B (80%< substrate protein remaining %≤ 100%) | A (0% ≤ substrate protein remaining % ≤ 80%)
9 | Cc1sc2ncnc(N3CCCN(Cc4ccc5c(c4)C(=O)N(C4CCC(=O)NC4=O)C5=O)CC3)c2c1C (stereo not drawn) [GT-06308, 5-((4-(5,6-dimethylthieno[2,3-d]pyrimidin-4-yl)-1,4-diazepan-1-yl)methyl)-2-(2,6-dioxopiperidin-3-yl)isoindoline-1,3-dione] | B (80%< substrate protein remaining %≤ 100%) | A (0% ≤ substrate protein remaining % ≤ 80%) | B (80%< substrate protein remaining %≤ 100%) | B (80%< substrate protein remaining %≤ 100%) | B (80%< substrate protein remaining %≤ 100%) | A (0% ≤ substrate protein remaining % ≤ 80%)
10 | O=C1CCC(N2C(=O)c3ccc(CN4CCN(c5ncnc6sc(-c7ccccc7)cc56)CC4)cc3C2=O)C(=O)N1 (stereo not drawn) [GT-06310, 2-(2,6-dioxopiperidin-3-yl)-5-((4-(6-phenylthieno[2,3-d]pyrimidin-4-yl)piperazin-1-yl)methyl)isoindoline-1,3-dione] | B (80%< substrate protein remaining %≤ 100%) | A (0% ≤ substrate protein remaining % ≤ 80%) | A (0% ≤ substrate protein remaining % ≤ 80%) | A (0% ≤ substrate protein remaining % ≤ 80%) | A (0% ≤ substrate protein remaining % ≤ 80%) | B (80%< substrate protein remaining %≤ 100%)
11 | Cc1nc(N2CCN(Cc3ccc4c(c3)C(=O)N(C3CCC(=O)NC3=O)C4=O)CC2)c2ccsc2n1 (stereo not drawn) [GT-06347, 2-(2,6-dioxopiperidin-3-yl)-5-((4-(2-methylthieno[2,3-d]pyrimidin-4-yl)piperazin-1-yl)methyl)isoindoline-1,3-dione] | B (80%< substrate protein remaining %≤ 100%) | A (0% ≤ substrate protein remaining % ≤ 80%) | B (80%< substrate protein remaining %≤ 100%) | B (80%< substrate protein remaining %≤ 100%) | A (0% ≤ substrate protein remaining % ≤ 80%) | A (0% ≤ substrate protein remaining % ≤ 80%)
12 | O=C1CCC(N2C(=O)c3ccc(CN4CCN(c5ccc(Cl)cc5Cl)CC4)cc3C2=O)C(=O)N1 (stereo not drawn) [GT-06355, 5-((4-(2,4-dichlorophenyl)piperazin-1-yl)methyl)-2-(2,6-dioxopiperidin-3-yl)isoindoline-1,3-dione] | B (80%< substrate protein remaining %≤ 100%) | B (80%< substrate protein remaining %≤ 100%) | A (0% ≤ substrate protein remaining % ≤ 80%) | B (80%< substrate protein remaining %≤ 100%) | B (80%< substrate protein remaining %≤ 100%) | B (80%< substrate protein remaining %≤ 100%)
13 | O=C1CCC(N2C(=O)c3ccc(CN4CCN(c5cc(Cl)ccc5Cl)CC4)cc3C2=O)C(=O)N1 (stereo not drawn) [GT-06356, 5-((4-(2,5-dichlorophenyl)piperazin-1-yl)methyl)-2-(2,6-dioxopiperidin-3-yl)isoindoline-1,3-dione] | B (80%< substrate protein remaining %≤ 100%) | B (80%< substrate protein remaining %≤ 100%) | A (0% ≤ substrate protein remaining % ≤ 80%) | B (80%< substrate protein remaining %≤ 100%) | B (80%< substrate protein remaining %≤ 100%) | B (80%< substrate protein remaining %≤ 100%)
